For this assay, the system named is blood glucose. Description: oral glucose tolerance test in diet-induced obese mice. It counts as in vivo, Male C57BL/6 mice. Particulars: fasted DIO mice, 1 hour before glucose (2 g/kg) challenge. How it is done: Specifically, an oral glucose tolerance test in diet-induced obese mice were conducted. Male C57BL/6 mice (6-8 weeks of age) were used. Mice were fed a lean (control group) or high-fat (DIO group) diet (5 and 35% fat by weight, respectively) for 6-9 weeks and then administered an oral glucose tolerance test. […] Blood glucose was determined at various time points from tail bleeds using a glucometer. The blood glucose response curve (AUC's, t==2 hours) are 18.7±1.6, 20.1±0.7, 21.3±11.5 for above three groups, respectively.

Data on one molecule can be found in patent US9115082B2, “Dipeptidyl-peptidase-IV inhibitors for treatment of type 2 diabetes complex with hypertension” (priority 2012, dated 2015).

In the case of `Cl.N#CC1CCCN1C(=O)CNCC(O)COc1ccccc1` (stereo not drawn) [compound 7, 1-(2-(2-hydroxy-3-phenoxypropylamino)acetyl)pyrrolidine-2-carbonitrile hydrochloride], the “blood glucose response curve (AUC's, t==2 hours)” value by setting is: (3 mg/kg oral) 21.3±11.5; (10 mg/kg oral) 20.1±0.7; (30 mg/kg oral) 18.7±1.6.
